What was measured:
normal oral cells (K2) = assay: MTT cell proliferation assay, normal oral cells (K2); format: cell-based; conditions: 100, 500, 800, 1000 nM, 24 and 48 hr, FIG. 2A
Method: MTT (3-(4,5-dimethylthiazol-2-yl)-2,5-diphenyltetrazolium bromide) assay is used for measuring cell proliferation. Add 3000 OSCC cells (SCC-15 and TW2.6) and 5000 immortalized cells (K2) into each well of a 96-well plate. Next day add the present polyenylpyrrole derivative (F236B) into the respective well and remove culture medium after 24 hours (hr) and 48 hr respectively. Then add MTT dissolved in culture medium (150 μL per well) except the background wells and react for 90 min. Lastly remove solution in the culture plate and add DMSO (150 μL per well) into the culture plate for dissolving the pigment. After being dissolved completely, use the ELISA machine to measure absorbance at 570 nm. […] 2A-2C.

OSCC cells (SCC-15) = assay: MTT cell proliferation assay, OSCC cells (SCC-15); format: cell-based, human
Method: (§1) MTT (3-(4,5-dimethylthiazol-2-yl)-2,5-diphenyltetrazolium bromide) assay is used for measuring cell proliferation. Add 3000 OSCC cells (SCC-15 and TW2.6) and 5000 immortalized cells (K2) into each well of a 96-well plate. Next day add the present polyenylpyrrole derivative (F236B) into the respective well and remove culture medium after 24 hours (hr) and 48 hr respectively. Then add MTT dissolved in culture medium (150 μL per well) except the background wells and react for 90 min. Lastly remove solution in the culture plate and add DMSO (150 μL per well) into the culture plate for dissolving the pigment. After being dissolved completely, use the ELISA machine to measure absorbance at 570 nm. The concentration of the polyenylpyrrole derivative (F236B) used is 10, 50, 80, 100, and 200 nM respectively, as results shown in FIG. 2A-2C.
Also refer to FIG. 2C, test results of OSCC cells (TW2.6) treated with 10, 50, 80, 100, and 200 nM polyenylpyrrole derivative (F236B) respectively are disclosed. […] Moreover, the present polyenylpyrrole derivative (F236B) not only has effects on the OSCC cells of Western people (SCC-15) but also affects the OSCC cells of Asians (TW2.6). Thus the polyenylpyrrole derivative (F236B) can be widely used in the OSCC cells. In the previous tests for assessment of the effects of natural products on cancer cells, the unit of the concentration unit used is μM. […]

[1] = system: TW2.6 human oral squamous cell carcinoma (OSCC) cell line; assay: MTT cell proliferation assay, OSCC cells (TW2.6); format: cell-based; conditions: 10, 50, 80, 100, 200 nM, 24 and 48 hr, FIG. 2C
Source text: The present polyenylpyrrole derivative is used to inhibit oral cancer cells. The oral cancer cell can be oral squamous cell carcinoma (OSCC) cell (SCC-15 cell line). The TW2.6 human oral squamous cell carcinoma (OSCC) cell line obtained from Asian people can also be used in cell proliferation assay.
as §1
Also refer to FIG. 2C, test results of OSCC cells (TW2.6) treated with 10, 50, 80, 100, and 200 nM polyenylpyrrole derivative (F236B) respectively are disclosed. […]

SCC-15 xenograft tumor = assay: Cell-line-derived xenograft model (SCC-15 cell line); format: in vivo, NOD-SCID male mice; conditions: 1 mg/kg s.c. into neck, vs PBS control, FIG. 2D
Source text: (§2) In order to learn whether in vivo test results of OSCC cells (SCC-15, TW2.6) are consistent with in vitro test results of the same, a cell-line-derived xenograft model (SCC-15 cell line) and a patient-derived xenograft (PDX) model of patients with oral cancers are used to test xenograft tumorigenicity of oral cancer cells and the results are shown in FIG. 2D-2F.
As to the cell-line-derived xenograft model, six-to-eight-week-old NOD-SCID male mice are used. About 5×10^6 SCC-15 cells are subcutaneously injected into the right abdominal of the mouse. There are two experimental groups. The mouse in the first group (I) is injected with the polyenylpyrrole derivative (F236B) the day after being injected with the OSCC cells. In the second group (II), the mouse is injected with the polyenylpyrrole derivative (F236B) when the tumor grows to a size with a diameter of about […]. The polyenylpyrrole derivative (F236B) at a dose of 1 mg/kg is subcutaneously injected into the neck of the mouse. Samples are taken when the cells grow to a size with a diameter of about 1 cm (21-day).

[2] = system: patient oral cancer tissue xenograft; assay: Patient-derived xenograft (PDX) model of patients with oral cancers; format: in vivo, NOD-SCID male mice
Source text: as §2
After approval of the institutional review board (IRB), oral cancer tissues of patients are collected at the Department of Otolaryngology, Hualien Tzu Chi Hospital during the period from Jul. 1, 2016 to Jun. 30, 2017. The PDX model has been established by immersing and washing the samples collected in Penicillin/Streptomycin diluted 2-fold with PBS, and using six-to-eight-week-old NOD-SCID male mice. After injection of a 0.01 mL/g body weight dose of ketamine/xylazine into a mouse, a 1.5×1.5 cm^2 skin surface at the right abdomen of the anesthetized mouse is treated with a depilatory agent to remove hair. Use tincture of iodine as a disinfectant and cut a wound of […] on the mouse skin and suture the wound after tumor tissue being applied. During recovery period, the rearing cage is set on the heating pad and turned back to the rearing rack after recovery. After the surgery, observe the mouse day by day and then get the mouse out of the cage when the tumor reaches a diameter of about 1 cm. […]

[3] = system: prostate apoptosis response-4 (Par-4); assay: Expression of Par-4 in OSCC cells; format: cell-based; conditions: FIG. 3C
Method: Also refer to FIG. 3D and FIG. 3E. The results of the SC group (SCC-15 cell line without the knockdown Par-4 gene) treated with 10 nM, 50 nM, 80 nM, 100 nM, and 200 nM polyenylpyrrole derivative (F236B) for 24 hours and 48 hours respectively are shown in FIG. 3D. The results of the Par-4-KD group (SCC-15 cell line with the knockdown Par-4 gene) treated with 10 nM, 50 nM, 80 nM, 100 nM, and 200 nM polyenylpyrrole derivative (F236B) for 24 hours and 48 hours respectively are shown in FIG. 3E.

SCC-15 cells [4] = assay: Tumor sphere formation on matrigel; format: cell-based, human; conditions: compared with the Par-4-KD group; FIG. 4
Method: Refer to FIG. 4, the test results of the tumor sphere formation ability of the OSCC cells are shown. In order to culture cells (SCC-15) for tumor sphere formation, each well of a 24-well plate is coated with 150 μL growth factor reduced matrigel, then placed in 4° C. refrigerator and shaken for 15 minutes to make the growth factor reduced matrigel distribute evenly therein. Place in 37° C. incubator for 1 hour. After firm matrigel formation, each well is added with 5000 SCC-15 cells and change culture medium every day.

[5] = system: SCC-15 cell line without the knockdown Par-4 gene; assay: Migration test, SC group; format: cell-based, human; conditions: 100 nM and 200 nM; 0, 3, 9 hr; FIG. 5A
Method: Then migration and movement of the Par-4-KD group and the SC group treated with polyenylpyrrole derivative (F236B) is tested and the results are shown in FIG. 5A-5B and FIG. 6.
The results of the Par-4-KD group (SCC-15 cell line with the knockdown Par-4 gene) treated with 100 nM and 200 nM polyenylpyrrole derivative (F236B) for 0, 3, and 9 hrs respectively are shown in FIG. 5B.

SCC-15 cells [6] = assay: Transwell assay for movement of tumor cells; format: cell-based, human; conditions: 24 and 48 hrs, compared with the Par-4-KD group, FIG. 6
Method: Refer to FIG. 6, a transwell assay is used for testing movement of tumor cells. A 24-well transwell chamber with 8.0 μm polycarbonate membrane (6.5 mm) therein is used. Add 100 μL serum free media into the upper layer and 500 μL media containing 10% serum into the lower layer. Then add 5000 cells (SCC-15) into the upper layer of each well, incubate overnight and add the polyenylpyrrole derivative (F236B). Remove the upper layer after 24 hrs and 48 hrs, respectively and wash 2 times with PBS. Add methanol (500 μL per well) at 4° C. for 1 hr for fixation and wash 2 times with PBS. Next, stain with crystal violet for 10 min and wash 2 times with PBS. Lastly observe and count the number of cells moved to the lower layer.

[7] = system: IL-17RA in OSCC cells (SCC-15); assay: Western blot of IL-17RA expression; format: cell-based, human; conditions: SCC-15, Western blot, vs DMSO control; FIG. 7
Method: Western blot is used to detect expression of IL-17RA in the OSCC cells (SCC-15) treated with the polyenylpyrrole derivative (F236B). The proteins are separated by SDS-PAGE gel and then transferred to a Polyvinylidene difluoride (PVDF) membrane. Then soak in 5% BSA (bovine serum albumin) for 1 hour for blocking. After removal of BSA and addition of primary antibodies, place the membrane in 4° C. refrigerator with constant shaking for 16 hr and wash 3 times with TBST-Tween20 (TBST) (each takes 15 min). Next add secondary antibodies and shake at room temperature for 1 hour. Then wash 3 times with TBST and each step takes 15 min. Lastly use enhanced chemiluminescent (ECL) reagent (RPN2106 ECL™ Western Blotting Reagent) for imaging and UVP BioSpectrum to detect images. […] Therefore, the reduction effect of the polyenylpyrrole derivative (F236B) on the expression of IL-17RA is associated with the tumor-suppressor function of the polyenylpyrrole derivative (F236B).

For `CCOc1cc(/C=C/C=C/C=C/C=C/c2[nH]ccc2Cl)oc(=O)c1` [F236B], the “proliferation of normal oral cells (K2)” value (normal oral cells (K2)) was “doesn't affect the proliferation of normal oral cells”, the “proliferation of OSCC cells (SCC-15)” value (OSCC cells (SCC-15); MTT, 10, 50, 80, 100, 200 nM, 24 and 48 hr, FIG. 2B) was “inhibits proliferation of the OSCC cells (SCC-15)” and the “proliferation of OSCC cells in the SC group” value (OSCC cells (SCC-15); SCC-15 without Par-4 knockdown, 10-200 nM, 24 and 48 hours, FIG. 3D) was “apparently reduced”. The “proliferation of OSCC cells (TW2.6)” value [1] was “inhibits proliferation of the OSCC cells (TW2.6)”, the “tumor volume, first group (I)” value (SCC-15 xenograft tumor; started the day after injection of OSCC cells, 21-day) was “significantly reduced” and the “tumor volume, second group (II)” value (SCC-15 xenograft tumor; started when tumor diameter about 30 mm) was “significantly reduced”. The “tumor volume, PDX” value ([2]; P3 mice, 1 mg/kg s.c. into neck, vs PBS control, FIG. 2E) was “dramatically decreased”, the “weight of the mouse” value ([2]; treated with F236B vs PBS, triplicate groups, FIG. 2F) was “not affected” and the “expression of Par-4 in the OSCC cells” value [3] was “enhances expression of Par-4”. The “tumor sphere formation ability, SC group” value (SCC-15 cells [4]) was “obviously reduced”, the “migration ability, SC group” value [5] was “clearly reduced” and the “movement of the OSCC cells in the SC group” value (SCC-15 cells [6]) was “significantly reduced”. For the same compound, the “expression of IL-17RA” value [7] was “obviously inhibited”.

— patent US10500188B1, “Use of a polyenylpyrrole derivative in preparation of anti-oral cancer drugs” (TZU CHI UNIVERSITY, priority 2019, dated 2019)
